{"source": "paper PMC9965614", "about": "“Computer-Aided Virtual Screening and In Vitro Validation of Biomimetic Tyrosinase Inhibitory Peptides from Abalone Peptidome” (International Journal of Molecular Sciences, 2023)", "key": {"B16F10 melanoma cells": {"system": "B16F10 melanoma cells", "assay": "Melanin content assay in UV-induced B16F10 cells", "type": "cell-based, murine", "details": "70 μM peptide, UVA/UVB-induced B16F10 cells, triplicate", "procedure": "Cellular melanin content was measured using a modified method by Jegal, et al.. B16F10 cells were seeded at 5 × 10^5 cells/mL in 24-well plates. […] After that, the cells in each well were washed and replaced by PBS. The UV stimulation process was performed by the exposure to UVA (314-400 nm, 3.0 W) and UVB (280-315 nm, 13.6 W) for 22 s. Then, PBS was replaced with media and further incubated for 24 h. The UV-stimulated cells were then trypsinized and centrifuged at 1500 rpm for 5 min. The cell pellet was then dissolved in 2 M NaOH at 60 °C for 1 h to solubilize the melanin. The melanin content was estimated by measuring the absorbance at 405 nm. The melanin content was calculated with the following equation: % Melanin content=(S)/(C)×100, where, S is the OD405 of sample and C represents the OD405 of control. All experiments were performed in triplicate."}, "tyrosinase [1]": {"system": "tyrosinase", "details": "RF machine learning model, 425 sequence features; cited from earlier work", "source_text": "(§1) Table 1 Abalone predicted TIPs by KNN and RF-based predictors and the predicted antioxidant scores by AnOxPePred 1.0 program. | column: Predicted Anti-Tyrosinase Probability / RF Predictor || Previously, our research team proposed the in-house machine learning-based anti-tyrosinase prediction tool, which provides thousands of potential peptides. The probability scores of all 1079 peptides from KNN-based and RF-based models can be found in the supplementary file of the previous article by Kongsompong et al.. The KNN and RF predictors were trained and tested against 133 peptides with known anti-tyrosinase properties with 97% and 99% accuracy. The predictions of both models were based on the numeric matrix of 425 features calculated from amino acid composition (20 featur ..."}, "[2]": {"system": "superoxide dismutase (SOD)", "assay": "Antioxidative enzyme activity, superoxide dismutase (assay kit)", "type": "cell-based, murine", "details": "70 μM, UV-exposed B16F10 cells", "procedure": "(§2) To determine the antioxidant activity, the centrifugation precipitate from Section 4.6 was dissolved in 1 mL of 1 M NaOH containing 10% DMSO at 80 °C for 1 h. Various assay kits, all from Beijing Solarbio Science & Technology Co., Ltd., Beijing, China, were used to measure the quantity of reduced reactive oxygen species (ROS) and the activity of superoxide dismutase (SOD), catalase (CAT), and glutathione peroxidase (GPx) according to the methods by Hu et al.."}, "mushroom tyrosinase": {"target": "mushroom tyrosinase (Agaricus bisporus, UniProt C7FF04)", "sequence (C7FF04 1-392)": "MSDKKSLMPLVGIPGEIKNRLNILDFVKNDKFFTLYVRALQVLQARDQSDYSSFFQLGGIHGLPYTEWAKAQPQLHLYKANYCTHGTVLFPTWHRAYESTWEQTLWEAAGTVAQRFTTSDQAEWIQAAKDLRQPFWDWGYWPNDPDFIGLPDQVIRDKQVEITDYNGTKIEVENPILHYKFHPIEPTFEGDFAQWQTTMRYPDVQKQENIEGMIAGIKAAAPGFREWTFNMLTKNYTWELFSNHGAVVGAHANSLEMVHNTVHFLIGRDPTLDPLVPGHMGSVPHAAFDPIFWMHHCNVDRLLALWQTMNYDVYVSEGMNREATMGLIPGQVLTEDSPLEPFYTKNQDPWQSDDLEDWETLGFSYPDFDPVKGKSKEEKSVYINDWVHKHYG", "sequence (G1K3P4 1-150 partner)": "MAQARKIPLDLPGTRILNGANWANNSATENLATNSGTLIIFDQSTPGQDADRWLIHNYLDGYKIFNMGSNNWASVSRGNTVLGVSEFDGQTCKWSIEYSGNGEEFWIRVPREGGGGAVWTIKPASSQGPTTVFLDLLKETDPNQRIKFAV", "assay": "Mushroom tyrosinase activity assay (L-DOPA oxidation, diphenolase)", "type": "biochemical", "details": "L-DOPA substrate, up to 500 μM", "procedure": "The inhibitory effect on mushroom tyrosinase was determined spectrophotometrically via L-DOPA oxidation. The reaction mixture consisted of 20 μL of hdTIPs, 140 μL of 100 mM sodium phosphate buffer (pH6.8) and 40 μL of 200 units/mL mushroom tyrosinase (EC 1.14.18.1; Sigma, Saint Louis, USA) placed in a 96-well microplate, then incubated for 10 min. After that, 20 μL of 5mM L-DOPA were mixed into each well over 20 min. Furthermore, the amount of dopachrome produced absorbance was measured at 475 nm. In addition, KA was used as the positive control at the same concentrations and conditions to hdTIPs. This method was modified from Kim et al..\nThe mushroom tyrosinase inhibitory activity was calculated with the following equation: % Mushroom tyrosinase inhibition=[(C)−(S)/(C)]×100, where, C represents the OD475 of control and S is the OD475 of sample. All experiments were performed in triplicate to determine the IC50 of the samples."}, "[3]": {"system": "glutathione peroxidase (GPx)", "assay": "Antioxidative enzyme activity, glutathione peroxidase (assay kit)", "type": "cell-based, murine", "details": "70 μM, UV-exposed B16F10 cells", "procedure": "as §2"}, "tyrosinase [4]": {"system": "tyrosinase", "details": "KNN machine learning model, 425 sequence features; cited from earlier work", "source_text": "as §1, with “/ KNN” for “/ RF”"}, "cellular tyrosinase": {"target": "T1, cellular tyrosinase (Mus musculus, UniProt P11344)", "T1 construct": "the harvested cells were lysed in cell extraction buffer; endogenous in cells; host or cells: B16F10 murine melanoma cells, UVA/UVB-induced", "T1 sequence (P11344 19-533)": "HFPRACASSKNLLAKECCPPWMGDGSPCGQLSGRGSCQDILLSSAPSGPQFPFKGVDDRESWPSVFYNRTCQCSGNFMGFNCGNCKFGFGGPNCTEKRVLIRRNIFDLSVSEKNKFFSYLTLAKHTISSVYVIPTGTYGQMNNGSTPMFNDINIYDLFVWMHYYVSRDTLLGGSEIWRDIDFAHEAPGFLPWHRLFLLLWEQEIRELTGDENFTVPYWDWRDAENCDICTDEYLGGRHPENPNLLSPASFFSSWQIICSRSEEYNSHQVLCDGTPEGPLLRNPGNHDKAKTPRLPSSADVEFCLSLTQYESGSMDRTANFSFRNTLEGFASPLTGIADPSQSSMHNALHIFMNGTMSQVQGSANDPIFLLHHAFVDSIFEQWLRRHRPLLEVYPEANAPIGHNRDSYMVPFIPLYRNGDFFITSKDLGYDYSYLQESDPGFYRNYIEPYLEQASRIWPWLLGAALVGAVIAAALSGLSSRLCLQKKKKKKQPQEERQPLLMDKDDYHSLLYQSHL", "assay": "Intracellular (cellular) tyrosinase activity assay in UV-induced B16F10 cells", "type": "cell-based, murine", "details": "70 μM peptide, UVA/UVB-induced B16F10 cells, triplicate", "procedure": "Tyrosinase activity was measured based on Dopa oxidase activity by estimating the dopachrome production according to the method by Qiao et al., 2012 [54], with some modifications. B16F10 cells were seeded at 5 × 10^6 cells/mL in 24-well plates. […] Each well was then washed and replaced with PBS 600 μL and induced with UVA (314-400 nm, 3.0 W) and UVB (280-315 nm, 13.6 W) using OSRAM (Ultra-Vitalux, Germany) for 22 s (0.32 J/cm^2). After that, the cells were incubated with medium 600 μL/well for a further 24 h. Then, the cells were trypsinized and the harvested cells were lysed in cell extraction buffer. After normalized protein concentration, 10 μL of each lysate supernatant was aliquoted into a 96-well plate and shaking incubated in dark conditions with 1 mM L-DOPA 90 μL in PBS at 37 °C at 280 rpm for 10 min. The absorbance was measured at 475 nm and all experiments were performed in triplicate to determine the IC50 of the samples. The cellular tyrosinase inhibitory activity was calculated with the following equation: % Cellular tyrosinase inhibition=[(C)-(S)/(C)]×100, where, C are defined as in the previous section."}}, "note": "Where a SMILES comes first, the peptide text is derived from it."}
{"compound": "CSCC[C@H](NC(=O)[C@H](CCC(N)=O)NC(=O)[C@H](CO)NC(=O)[C@@H](N)[C@@H](C)O)C(=O)N[C@@H](CO)C(=O)N[C@@H](CCCNC(=N)N)C(=O)N[C@@H](CO)C(=O)N[C@@H](CO)C(=O)N[C@@H](CO)C(=O)N[C@@H](CCCNC(=N)N)C(=O)O", "note": "[KNN2] (H-TSQMSRSSSR-OH; N-terminus and C-terminus assumed)", "values": [{"measurement": "inhibition of melanin content", "setting": "B16F10 melanoma cells", "value": "fourth-most-effective inhibitor"}, {"measurement": "Predicted Anti-Tyrosinase Probability RF Predictor", "setting": "tyrosinase [1]", "value": 0.37}, {"measurement": "effect on SOD activity", "setting": "[2]", "value": "elevated"}, {"measurement": "inhibitory effect on mushroom tyrosinase (diphenolase activity)", "setting": "mushroom tyrosinase", "value": "did not show any inhibition"}, {"measurement": "effect on GPx activity", "setting": "[3]", "value": "elevated"}, {"measurement": "Predicted Anti-Tyrosinase Probability KNN Predictor", "setting": "tyrosinase [4]", "value": 1.00}, {"measurement": "inhibition of cellular tyrosinase", "setting": "cellular tyrosinase", "value": "fourth-most-effective inhibitor"}]}
